B1: Fas ligand: death ligand, 100 ng/ml, PeoproTech (protein, UniProt P48023 130-281, looked up)
Tumor necrosis factor ligand …: QIGHPSPPPEKKELRKVAHLTGKSNSRSMPLEWEDTYGIVLLSGVKYKKGGLVINETGLYFVYSKVYFRGQSCNNLPLSHKVYMRNSKYPQDLVMMEGKMMSYCTTGQMWARSSYLGAVFNLTSADHLYVNVSELSLVNFEESQTFFGLYKL

Legend:
splenic B cells = experiment: In vitro lymphocyte survival and apoptosis assays (trypan blue dye exclusion); format: cell-based, mouse; conditions: for sensitivity of splenic B cells to death stimuli: both wild-type and p80HT splenic B cells, TNF-α 20 ng/ml, Fas ligand 100 ng/ml, doxorubicin 0.5 μg/ml
Experimental: (§1) C-E: In vitro survival and apoptosis assays of splenic B cells and B lymphoma cells. Cells were either untreated (D) or treated with 0.5 μg/ml of doxorubicin (C) or with 20 μg/ml of LPS (E). Viability was determined by trypan blue dye exclusion assays. Data in (A-E) represent means±SD of cells from 5 mice of each genotype or from 58 lymphomas samples.
(§2) Purified splenic B cells and B lymphoma cells (10^5/well, 96-well plate) were cultured in DMEM supplemented with 10% FBS, 250 μM L-asparagine, and 50 μM 2-mercaptoethanol. Cells were either untreated or treated with recombinant mouse TNF-α (20 ng/ml, Calbiochem), Fas ligand (100 ng/ml, PeoproTech), LPS (20 μg/ml, Sigma), or doxorubicin (0.5 μg/ml, Ben Venue Laboratories), and viable cells were determined daily by trypan blue dye exclusion assays.

B lymphoma cells = experiment: as above; format: cell-based, mouse; conditions: B lymphoma cells from p80HT transgenic mice; doxorubicin 0.5 μg/ml
Experimental: as §1, §2

Molecule	sensitivity of splenic B cells to death stimuli (splenic B cells)	apoptosis induced by doxorubicin (B lymphoma cells)	apoptosis induced by the activation signal (LPS) (splenic B cells; p80HT splenic B cells, LPS 20 μg/ml)	response of splenic B cells to LPS (splenic B cells; splenic B cells generally, LPS 20 μg/ml, after about 3 days of proliferation)
TNF-a	highly resistant			
COc1cccc2c1C(=O)c1c(O)c3c(c(O)c1C2=O)C[C@@](O)(C(=O)CO)C[C@@H]3O[C@H]1C[C@H](N)[C@H](O)[C@H](C)O1 [doxorubicin]	equally sensitive	highly resistant		
lipopolysaccharide [LPS]			highly resistant	extensive apoptosis
B1	highly resistant			

Source: patent publication US20060117399A1, “Animal model for human lymphomas” (Medical University, priority 2004, published 2006)
